Columns and labels:
[1] = biological target: T1, neuromedin U receptor (NMU2) (Homo sapiens, UniProt Q9GZQ4); experiment: luciferase assay system, ghrelin receptor family selectivity; format: cell-based; settings: compared with intrinsic ligand, FIG. 74
T1 construct: expressed in transfected cells
Method: In addition, through the activity test of the HKFY derivatives for similar receptors to GPR39, ghrelin receptor family (ghrelin receptor (GHSR), motilin receptor (MTLR), neurotensin receptor (NTSR1 & NTSR2), neuromedin U receptor (NMU1 & NMU2), TRH (thyrotropin releasing hormone) receptor (TRHR)), the selectivity and specificity for the GPR39 receptor were confirmed.
Specifically, the degree of activity between the intrinsic ligand and HKFY-34 for each receptor was analyzed using a luciferase assay system (FIG. 74).

HT-29 cells [2] = experiment: cell proliferation of HT-29 intestinal epithelial cells (Cellvia kit, BrdU kit); format: cell-based; settings: different concentrations, 24, 48 and 72 hours, FIG. 75
Method: It is known from studies using GPR39 deficient mice that GPR39 is involved in the growth and differentiation of intestinal tissue cells (Phil. Trans. R. Soc. B., 2016, 371:20150420). Therefore, in order to confirm the effect of HKFY-34 on the growth of intestinal tissue cells, the degree of cell proliferation by HKFY-34 was measured using HT-29 cells (Korea Cell Line Bank), which are intestinal epithelial cells.
Specifically, HT-29 cells were cultured in a 96 well plate and then treated with HKFY-34 at different concentrations for 24, 48, and 72 hours. The cell proliferation of the cultured cells was measured using a Cellvia kit (AB frontier) and a BrdU cell proliferation kit (abcam).

HT-29 cells [3] = experiment: calcium ion concentration in HT-29 cells (Fluo-8); format: cell-based; settings: 10 uM, vs untreated group (vehicle), FIG. 76
Method: It is known from studies using GPR39 deficient mice that calcium signaling is involved in the growth of intestinal tissue cells by GPR39 (Phil. Trans. R. Soc. B. 2016, 371:20150420). Therefore, it was confirmed whether calcium signaling is involved in the cell growth promoted by HKFY-34.
Specifically, HT-29 cells were cultured in a 96-well black culture plate and then treated with HKFY-34, and the calcium ion concentration in the cells was measured using a Fluo-8 Direct™ calcium assay kit (Thermo Fisher Scientific). As a result, the calcium ion concentration in HT-29 cells was increased by HKFY-34 compared to the untreated group (vehicle) (FIG. 76).

AMPK = experiment: phosphorylation of AMPK in HT-29 cells, Western blot; format: cell-based
Source text: It is known that tight junctions are mediated by a signaling mechanism due to phosphorylation of AMPK protein. Therefore, in order to confirm whether AMPK is involved in the increase in tight junctions by HKFY-34, the expression of p-AMPK in the cells was confirmed using HT-29 cells (FIGS. 79 and 80).
In addition, when treated with HKFY-34 after pretreatment with an AMPK inhibitor (STO-609), it was confirmed that the expression level of p-AMPK, which was increased due to HKFY-34 treatment, was decreased (FIG. 80).

HT-29 cells [4] = experiment: LPS-induced inflammation cell model of inflammatory bowel disease (HT-29), qPCR and ELISA; format: cell-based; settings: HT-29, 1 μg/mL LPS, vs LPS alone
Method: In order to confirm the effect of HKFY-34 on anti-inflammatory action, which is one of the gastrointestinal tract protective function (barrier function) by GPR39, the anti-inflammatory activity of HKFY-34 was evaluated in a cell model of inflammatory bowel disease (IBD).
Specifically, the HT-29 cells were treated with 1 μg/mL LPS to induce inflammation and prepare an inflammatory bowel disease model, and were treated with HKFY-34 at different concentrations. Thereafter, the expression levels of mRNA (FIG. 81) and protein (FIG. 82) of inflammation factors for ulcerative colitis were measured through qPCR and ELISA.

[5] = tested on: ulcerative colitis-induced wild type mice; experiment: DSS-induced ulcerative colitis in wild type littermate mice; format: in vivo
Method: (§1) In order to confirm the effect of HKFY-34 in an inflammatory bowel disease model using GPR39 as a target substance, a disease model of ulcerative colitis was prepared using GPR39 deficient mice (GPR39 knock out (KO), Gpr39^−/−). At this time, wild type mice born from a litter were set as a control group for each treated group of GPR39 deficient mice.
(§2) Specifically, an animal model of ulcerative colitis was prepared by feeding GPR39 deficient mice (Lexicon pharmaceuticals) and wild type mice with water containing 3% DSS in the same manner as in Experimental Example 7. GPR39 KO mice fed with only DSS (vehicle+3% DSS) were set as a negative control group, and GPR39 KO mice administered with HKFY-34 (10 mg/kg) (HKFY-34 10 mg/kg+3% DSS) were set as a test group. Intraperitoneal administration was performed once a day for 5 days.

[6] = tested on: ulcerative colitis-induced GPR39 deficient mice (Gpr39−/−); experiment: DSS-induced ulcerative colitis in GPR39 deficient mice; format: in vivo
Method: as §1, §2

GPR39 = biological target: T2, GPR39 (Homo sapiens, UniProt O43194); experiment: luciferase assay system (SRE luciferase reporter gene, CV-1 cells expressing GPR39); format: cell-based; parameters: expressed in transfected cells; host or cells: CV-1 fibroblast cell line (Korea Cell Line Bank), adenoviral transduction at 50 MOI
T2 sequence (O43194 1-453): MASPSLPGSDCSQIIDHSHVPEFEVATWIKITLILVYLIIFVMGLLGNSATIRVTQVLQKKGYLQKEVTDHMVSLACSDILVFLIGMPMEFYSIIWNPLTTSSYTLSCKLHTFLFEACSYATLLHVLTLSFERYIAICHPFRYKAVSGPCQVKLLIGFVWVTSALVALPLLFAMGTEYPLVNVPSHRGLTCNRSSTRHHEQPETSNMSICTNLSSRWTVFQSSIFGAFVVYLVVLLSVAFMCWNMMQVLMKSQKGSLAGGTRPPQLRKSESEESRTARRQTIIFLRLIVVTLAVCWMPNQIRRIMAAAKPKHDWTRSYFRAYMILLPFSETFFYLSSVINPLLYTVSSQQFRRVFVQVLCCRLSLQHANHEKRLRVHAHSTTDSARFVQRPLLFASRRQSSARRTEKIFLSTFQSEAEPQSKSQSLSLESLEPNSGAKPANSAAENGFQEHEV

[7] = 10 mg/kg intraperitoneal for 5 days, FIG. 92
[8] = 10 mg/kg intraperitoneal for 5 days, FIG. 95
[9] = 10 mg/kg intraperitoneal once a day for 5 days, 3% DSS, FIG. 91

T1 sequence (Q9GZQ4 whole entry, species assumed): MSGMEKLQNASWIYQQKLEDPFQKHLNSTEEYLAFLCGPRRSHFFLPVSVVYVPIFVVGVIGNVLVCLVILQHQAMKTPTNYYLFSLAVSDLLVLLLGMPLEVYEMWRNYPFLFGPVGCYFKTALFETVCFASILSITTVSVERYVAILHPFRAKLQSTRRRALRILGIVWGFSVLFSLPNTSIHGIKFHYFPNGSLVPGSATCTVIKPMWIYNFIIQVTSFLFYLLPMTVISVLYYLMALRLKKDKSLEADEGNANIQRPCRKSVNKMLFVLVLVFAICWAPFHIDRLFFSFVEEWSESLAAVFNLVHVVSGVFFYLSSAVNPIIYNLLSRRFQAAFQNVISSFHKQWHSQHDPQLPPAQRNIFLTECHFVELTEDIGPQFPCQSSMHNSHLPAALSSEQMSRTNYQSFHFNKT

## CCCCCCCC(=O)NCCCC[C@H](NC(=O)[C@@H](N)Cc1cn(C(c2ccccc2)c2ccccc2)cn1)C(=O)N[C@H](Cc1ccc(C)cc1)C(=O)N[C@@H](Cc1ccc(O)cc1)C(=O)O [HKFY-34, ((R)-2-((S)-2-((S)-2-amino-3-(1-benzhydryl-1H-imidazol-4-yl)propanamido)-6-octanamidohexanamido)-3-(p-tolyl)propanoyl)-L-tyrosine]
[1]
  activity for NMU2: very low
HT-29 cells [2]
  proliferation of HT-29 cells: increased by HKFY-34 in a dose-dependent manner
HT-29 cells [3]
  calcium ion concentration in HT-29 cells: increased
AMPK; HT-29, different concentrations, vs vehicle, FIG. 79
  expression of p-AMPK protein: increased by HKFY-34 in a dose-dependent manner
AMPK; HT-29, pretreatment with STO-609 1 μM, vs HKFY-34 treatment, FIG. 80
  expression level of p-AMPK after pretreatment with AMPK inhibitor: decreased
HT-29 cells [4]; ELISA, FIG. 82
  secretion level of IL-1β: significantly decreased by HKFY-34 treatment in a dose-dependent manner
  secretion level of IL-6: significantly decreased by HKFY-34 treatment in a dose-dependent manner
  secretion level of IL-8: significantly decreased by HKFY-34 treatment in a dose-dependent manner
  secretion level of TNF-α: significantly decreased by HKFY-34 treatment in a dose-dependent manner
HT-29 cells [4]; qPCR, FIG. 81
  mRNA expression level of IL-1β: significantly decreased by HKFY-34 treatment in a dose-dependent manner
  mRNA expression level of IL-6: significantly decreased by HKFY-34 treatment in a dose-dependent manner
  mRNA expression level of IL-8: significantly decreased by HKFY-34 treatment in a dose-dependent manner
  mRNA expression level of TNF-α: significantly decreased by HKFY-34 treatment in a dose-dependent manner
[5]; [7]
  decrease in colon length: inhibited
[5]; [8]
  damage due to inflammation of colon tissue (H&E staining): reduced
[5]; [9]
  body weight loss: inhibited
[6]; [7]
  inhibitory effect on the reduction of colon length: not observed
[6]; [8]
  effect of reducing inflammatory damage of colon tissue (H&E staining): not observed
[6]; [9]
  inhibitory effect on body weight loss: no inhibitory effect
[6]; 10 mg/kg intraperitoneal, vs negative control, FIG. 93
  effect of alleviating stool consistency: not observed
[6]; 10 mg/kg intraperitoneal, vs negative control, FIG. 94
  effect of alleviating blood in stool: not observed
GPR39
  ECmax (−fold induction over basal): 22.39 ± 4.59 fold induction over basal
  Reporter gene assay ECmax (−fold induction over basal): 22.39 ± 4.59 fold induction over basal
GPR39; comment on Table 3
  activity level for GPR39 (in words): higher activity level than other HKFY derivatives
GPR39; comment on Table 3, derivatives composed of d-Phe(methyl)
  activity and ECmax value for GPR39 (in words): most excellent activity and high ECmax value

From patent publication US20250340591A1, “COMPOSITION FOR PREVENTING OR TREATING INFLAMMATORY BOWEL DISEASE CONTAINING NOVEL COMPOUND” (ANYGEN CO., LTD., priority 2021, published 2025)
